# Data as given in patent publication US5506261A, “Substituted aryl- and heteroarylalkenyl-N-hydroxyurea inhibitors of leukotriene biosynthesis” (Abbott Laboratories, priority 1994, dated 1996).
# System: calcium ionophore-induced LTB4 biosynthesis
# Assay: Inhibition of calcium ionophore (A23187)-induced LTB4 biosynthesis in human whole blood
# Assay type: cell-based
# Settings: human heparinized whole blood; 15 min preincubation at 37° C.; A23187 8.3 μM, 30 minutes; LTB4 by radioimmunoassay; read-out: IC50, inhibition of leukotriene biosynthesis in human whole blood
# Protocol: Inhibition of leukotriene biosynthesis was evaluated in an assay, involving calcium ionophore-induced LTB4 biosynthesis expressed human whole blood. Human heparinized whole blood was preincubated with test compounds or vehicle for 15 rain at 37° C. followed by calcium ionophore A23187 challenge (final concentration of 8.3 μM) and the reaction terminated after 30 minutes by adding two volumes of methanol containing prostaglandin B2 as an internal recovery standard. The methanol extract was analyzed for LTB4 using a commercially available radioimmunoassay.
row,IC50 [nM],Structure (SMILES)
1,40,"C[C@H](/C=C\c1ccc(Cc2ccc(F)cc2)s1)N(O)C(N)=O [Example 1, Z-(R)-N-[3-(5-(4-Fluorophenylmethyl)-thien-2-yl)-1-methyl-2-propenyl]-N-hydroxyurea]"
2,180,"C[C@H](/C=C/c1ccc(Cc2ccc(F)cc2)s1)N(O)C(N)=O [Example 2, E-(R)-N-[3-(5-(4-Fluorophenylmethyl)-thien-2-yl)-1-methyl-2-propenyl]-N-hydroxyurea]"
